Settings: Liquid, Vibrating tube method

FCC(F)(F)F [1,1,1,2-tetrafluoroethane]
Settings	mass density [kg/m3]
283.46 K, 1000 kPa	1262.57
283.46 K, 5000 kPa	1279.58
283.47 K, 10000 kPa	1298.12
283.47 K, 20000 kPa	1329.18
283.47 K, 40000 kPa	1377.11
283.47 K, 60000 kPa	1414.44
283.47 K, 80000 kPa	1445.46
303.37 K, 10000 kPa	1236.85
303.37 K, 20000 kPa	1275.77
303.38 K, 1000 kPa	1188.07
303.38 K, 5000 kPa	1212.13
303.38 K, 40000 kPa	1332.36
303.38 K, 60000 kPa	1374.64
303.38 K, 80000 kPa	1408.98
323.15 K, 3000 kPa	1119.19
323.16 K, 5000 kPa	1136.38
323.16 K, 10000 kPa	1170.84
323.16 K, 20000 kPa	1220.65
323.16 K, 40000 kPa	1287.71
323.16 K, 60000 kPa	1335.49
323.16 K, 80000 kPa	1373.39
342.97 K, 3000 kPa	1014.76
342.97 K, 5000 kPa	1045.25
342.98 K, 10000 kPa	1097.42
342.98 K, 20000 kPa	1162.91
342.98 K, 40000 kPa	1242.75
342.98 K, 80000 kPa	1338.34
342.99 K, 60000 kPa	1296.65
362.68 K, 5000 kPa	922.4
362.68 K, 10000 kPa	1013.83
362.68 K, 20000 kPa	1102.6
362.68 K, 40000 kPa	1197.86
362.68 K, 60000 kPa	1258.47
362.68 K, 80000 kPa	1304.15

CCCCC(CC)COC(C)=O (stereo not drawn) [2-ethylhexyl acetate]
Settings	mass density [kg/m3]
283.45 K, 80000 kPa	925.84
283.45 K, 90000 kPa	930.33
283.45 K, 100000 kPa	934.63
283.46 K, 100 kPa	880.38
283.46 K, 1000 kPa	881.05
283.46 K, 40000 kPa	905.65
283.46 K, 50000 kPa	911.06
283.46 K, 60000 kPa	916.18
283.46 K, 70000 kPa	921.22
283.47 K, 3000 kPa	882.48
283.47 K, 5000 kPa	883.9
283.47 K, 30000 kPa	899.95
283.48 K, 10000 kPa	887.37
283.48 K, 15000 kPa	890.63
283.48 K, 20000 kPa	893.87
283.48 K, 25000 kPa	896.91
293.44 K, 1000 kPa	872.61
293.44 K, 3000 kPa	874.12
293.45 K, 5000 kPa	875.6
293.45 K, 10000 kPa	879.24
293.45 K, 15000 kPa	882.73
293.45 K, 20000 kPa	886.08
293.45 K, 25000 kPa	889.32
293.45 K, 30000 kPa	892.46
293.45 K, 40000 kPa	898.43
293.45 K, 60000 kPa	909.42
293.45 K, 70000 kPa	914.46
293.45 K, 80000 kPa	919.33
293.45 K, 100000 kPa	928.38
293.46 K, 100 kPa	871.89
293.46 K, 50000 kPa	904.07
293.46 K, 90000 kPa	923.91
303.38 K, 1000 kPa	863.7
303.39 K, 3000 kPa	865.32
303.39 K, 15000 kPa	874.36
303.39 K, 40000 kPa	890.82
303.4 K, 5000 kPa	866.89
303.4 K, 10000 kPa	870.7
303.4 K, 20000 kPa	877.88
303.4 K, 25000 kPa	881.31
303.4 K, 30000 kPa	884.55
303.4 K, 50000 kPa	896.67
303.4 K, 60000 kPa	902.22
303.4 K, 70000 kPa	907.5
303.4 K, 80000 kPa	912.5
303.4 K, 90000 kPa	917.28
303.41 K, 100 kPa	862.94
303.41 K, 100000 kPa	921.87
313.34 K, 100 kPa	854.53
313.34 K, 1000 kPa	855.28
313.34 K, 3000 kPa	857.04
313.34 K, 5000 kPa	858.73
313.34 K, 10000 kPa	862.77
313.34 K, 15000 kPa	866.66
313.34 K, 20000 kPa	870.34
313.34 K, 25000 kPa	873.92
313.34 K, 30000 kPa	877.34
313.34 K, 40000 kPa	883.88
313.34 K, 50000 kPa	889.98
313.34 K, 60000 kPa	895.7
313.34 K, 70000 kPa	901.14
313.34 K, 80000 kPa	906.27
313.34 K, 100000 kPa	915.93
313.35 K, 90000 kPa	911.19
323.15 K, 100 kPa	845.74
323.15 K, 50000 kPa	882.8
323.15 K, 60000 kPa	888.76
323.15 K, 70000 kPa	894.49
323.15 K, 80000 kPa	899.83
323.15 K, 90000 kPa	904.91
323.15 K, 100000 kPa	909.78
323.16 K, 1000 kPa	846.56
323.16 K, 3000 kPa	848.36
323.16 K, 5000 kPa	850.14
323.16 K, 10000 kPa	854.42
323.16 K, 25000 kPa	866.13
323.16 K, 30000 kPa	869.71
323.16 K, 40000 kPa	876.47
323.17 K, 15000 kPa	858.49
323.17 K, 20000 kPa	862.39
332.99 K, 100 kPa	836.98
333 K, 1000 kPa	837.85
333 K, 3000 kPa	839.78
333 K, 5000 kPa	841.66
333 K, 10000 kPa	846.16
333 K, 15000 kPa	850.47
333 K, 20000 kPa	854.55
333 K, 25000 kPa	858.45
333.01 K, 30000 kPa	862.21
333.01 K, 40000 kPa	869.27
333.01 K, 50000 kPa	875.85
333.01 K, 60000 kPa	882.02
333.01 K, 70000 kPa	888.07
333.01 K, 80000 kPa	893.58
333.01 K, 90000 kPa	898.82
333.01 K, 100000 kPa	903.81
342.95 K, 100 kPa	828.32
342.96 K, 1000 kPa	829.27
342.96 K, 3000 kPa	831.31
342.96 K, 5000 kPa	833.3
342.96 K, 10000 kPa	838.06
342.96 K, 15000 kPa	842.59
342.96 K, 20000 kPa	846.9
342.97 K, 25000 kPa	851
342.97 K, 30000 kPa	854.91
342.97 K, 40000 kPa	862.31
342.97 K, 50000 kPa	869.15
342.97 K, 60000 kPa	875.57
342.97 K, 70000 kPa	881.64
342.97 K, 80000 kPa	887.28
342.97 K, 90000 kPa	892.73
342.97 K, 100000 kPa	897.85
352.78 K, 100 kPa	819.64
352.79 K, 1000 kPa	820.65
352.79 K, 3000 kPa	822.83
352.79 K, 5000 kPa	824.93
352.79 K, 10000 kPa	830
352.79 K, 15000 kPa	834.75
352.79 K, 20000 kPa	839.27
352.79 K, 25000 kPa	843.56
352.79 K, 30000 kPa	847.66
352.79 K, 40000 kPa	855.34
352.79 K, 50000 kPa	862.46
352.79 K, 60000 kPa	869.08
352.79 K, 70000 kPa	875.42
352.79 K, 90000 kPa	886.84
352.79 K, 100000 kPa	892.14
352.8 K, 80000 kPa	881.29
362.64 K, 100 kPa	810.91
362.64 K, 1000 kPa	811.97
362.64 K, 3000 kPa	814.28
362.64 K, 5000 kPa	816.51
362.64 K, 10000 kPa	821.85
362.64 K, 15000 kPa	826.87
362.64 K, 20000 kPa	831.61
362.64 K, 25000 kPa	836.09
362.64 K, 30000 kPa	840.38
362.64 K, 50000 kPa	855.78
362.64 K, 60000 kPa	862.65
362.64 K, 70000 kPa	869.14
362.64 K, 80000 kPa	875.25
362.64 K, 90000 kPa	880.97
362.64 K, 100000 kPa	886.45
362.65 K, 40000 kPa	848.4
